Counter-ions that a name gives are not always drawn.

Usually IC50 stands for the concentration needed to halve the response being measured.

Chain of purified recombinantly expressed human SSAO (Q16853 29-763): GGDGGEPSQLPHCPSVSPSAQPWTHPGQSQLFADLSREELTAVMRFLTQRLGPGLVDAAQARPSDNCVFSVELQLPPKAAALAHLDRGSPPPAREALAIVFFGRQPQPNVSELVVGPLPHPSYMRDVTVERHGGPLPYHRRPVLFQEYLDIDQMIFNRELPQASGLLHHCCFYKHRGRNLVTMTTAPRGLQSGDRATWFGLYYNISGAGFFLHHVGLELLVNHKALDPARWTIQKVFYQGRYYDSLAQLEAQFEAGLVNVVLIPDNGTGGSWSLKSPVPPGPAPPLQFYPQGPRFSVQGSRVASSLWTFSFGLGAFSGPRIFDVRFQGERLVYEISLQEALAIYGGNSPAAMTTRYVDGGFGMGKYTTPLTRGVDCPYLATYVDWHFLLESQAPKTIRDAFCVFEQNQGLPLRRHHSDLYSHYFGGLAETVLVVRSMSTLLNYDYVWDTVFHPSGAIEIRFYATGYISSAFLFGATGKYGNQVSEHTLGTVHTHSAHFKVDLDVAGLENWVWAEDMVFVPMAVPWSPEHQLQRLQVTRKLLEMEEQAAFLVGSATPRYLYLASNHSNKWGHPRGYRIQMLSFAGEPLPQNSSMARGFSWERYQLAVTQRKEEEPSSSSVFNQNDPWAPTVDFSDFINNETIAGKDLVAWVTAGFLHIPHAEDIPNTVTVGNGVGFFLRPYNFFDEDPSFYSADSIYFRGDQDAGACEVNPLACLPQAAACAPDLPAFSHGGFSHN
Chain of human ether a go-go related gene (hERG) K+ channel (Q12809 whole entry): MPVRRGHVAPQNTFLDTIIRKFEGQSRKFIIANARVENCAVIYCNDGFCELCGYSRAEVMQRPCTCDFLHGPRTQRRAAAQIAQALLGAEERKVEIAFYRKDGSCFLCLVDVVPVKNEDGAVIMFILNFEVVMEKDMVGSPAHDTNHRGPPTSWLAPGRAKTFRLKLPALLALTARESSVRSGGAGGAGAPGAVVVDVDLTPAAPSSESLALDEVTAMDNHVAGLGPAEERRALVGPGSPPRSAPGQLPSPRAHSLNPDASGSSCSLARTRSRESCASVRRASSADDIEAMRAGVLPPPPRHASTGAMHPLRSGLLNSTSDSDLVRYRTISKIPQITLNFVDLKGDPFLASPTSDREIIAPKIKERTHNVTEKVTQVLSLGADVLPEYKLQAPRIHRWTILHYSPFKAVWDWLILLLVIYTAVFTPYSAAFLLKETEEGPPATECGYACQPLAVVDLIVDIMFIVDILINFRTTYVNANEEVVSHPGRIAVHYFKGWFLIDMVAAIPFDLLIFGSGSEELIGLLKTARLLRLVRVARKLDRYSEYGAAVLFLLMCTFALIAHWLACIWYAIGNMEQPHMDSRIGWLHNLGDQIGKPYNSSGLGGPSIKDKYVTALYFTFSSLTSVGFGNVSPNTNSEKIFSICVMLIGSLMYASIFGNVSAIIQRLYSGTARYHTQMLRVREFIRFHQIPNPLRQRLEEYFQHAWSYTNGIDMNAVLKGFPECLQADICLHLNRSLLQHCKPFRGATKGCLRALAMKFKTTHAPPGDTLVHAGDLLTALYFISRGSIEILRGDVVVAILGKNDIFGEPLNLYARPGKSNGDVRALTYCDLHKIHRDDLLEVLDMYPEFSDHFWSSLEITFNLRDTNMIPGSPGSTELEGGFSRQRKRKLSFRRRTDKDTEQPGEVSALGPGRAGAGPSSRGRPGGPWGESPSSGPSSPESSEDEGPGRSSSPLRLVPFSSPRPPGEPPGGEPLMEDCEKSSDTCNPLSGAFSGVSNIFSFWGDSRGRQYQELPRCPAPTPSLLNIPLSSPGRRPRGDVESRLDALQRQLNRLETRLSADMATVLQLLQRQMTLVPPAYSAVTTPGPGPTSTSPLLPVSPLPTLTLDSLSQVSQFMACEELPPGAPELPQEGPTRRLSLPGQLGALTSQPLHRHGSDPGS

For one series, the target named is purified recombinantly expressed human SSAO (Homo sapiens (Human), UniProt Q16853). Kind of series: SSAO enzyme inhibition assay (HRP-coupled hydrogen peroxide detection or 14C-benzaldehyde detection, benzylamine substrate). Type of series: biochemical. The settings on record: SSAO inhibitory activity, human recombinant SSAO, RT. The procedure:
All primary assays were performed at RT. with purified recombinantly expressed human SSAO. Enzyme was prepared essentially as described in Öhman et al. (Protein Expression and Purification 46 (2006) 321-331). In addition, secondary- and selectivity assays were performed using SSAO prepared from various tissues or purified rat recombinant SSAO. The enzyme activity was assayed with benzylamine as substrate by measuring either benzaldehyde production, using ^14C-labeled substrate, or by utilizing the production of hydrogen peroxide in a horseradish peroxidase (HRP) coupled reaction. Briefly, test compounds were dissolved in dimethyl sulfoxide (DMSO) to a concentration of 10 mM. Dose-response measurements were assayed by either creating 1:10 serial dilutions in DMSO to produce a 7 point curve or by making 1:3 serial dilutions in DMSO to produce 11 point curves.
In a horseradish peroxidase (HRP) coupled reaction, hydrogen peroxide oxidation of 10-acetyl-3,7-dihydroxyphenoxazine produced resorufin, which is a highly fluorescent compound (Zhout and Panchuk-Voloshina. Analytical Biochemistry 253 (1997) 169-174; Amplex® Red Hydrogen Peroxide/peroxidase Assay kit, Invitrogen A22188). Enzyme and compounds in 50 mM sodium phosphate, pH 7.4 were set to pre-incubate in flat-bottomed microtiter plates for approximately 15 min before initiating the reaction by addition of a mixture of HRP, benzylamine and Amplex reagent. Benzylamine concentration was fixed at a concentration corresponding to the Michaelis constant, determined using standard procedures. Fluorescence intensity was then measured at several time points during 1-2 h, exciting at 544 nm and reading the emission at 590 nm. For the human SSAO assay final concentrations of the reagents in the assay wells were: SSAO enzyme 1 ug/ml, benzylamine 100 uM, Amplex reagent 20 uM, HRP 0.1 U/mL and varying concentrations of test compound. The inhibition was measured as % decrease of the signal compared to a control without inhibitor (only diluted DMSO). The background signal from a sample containing no SSAO enzyme was subtracted from all data points. Data was fitted to a four parameter logistic model and IC50 values were calculated using the GraphPad Prism 4 or XLfit 4 programs.
SSAO activity was assayed using 14C-labeled benzylamine and analysed by measuring radioactive benzaldehyde. In a white 96-well optiplate (Packard), 20 uL of diluted test compound was pre-incubated at room temperature with 20 uL SSAO enzyme for approximately 15 min with continuous agitation. All dilutions were made with PBS. The reaction was initiated by adding 20 uL of the benzylamine substrate solution containing [7-14C] Benzylamine hydrochloride (CFA589, GE Healthcare). The plate was incubated for 1 h as above after which the reaction was stopped by acidification (10 uL 1M aq HCl). Then 90 uL Micro Scint-E solution (Perkin-Elmer) was added to each well and the plate was continuously mixed for 15 min. Phase separation occurred instantly and activity was read in a Topcount scintillation counter (Perkin-Elmer). In the final reaction well, the human recombinant SSAO concentration was 10 ug/ml. In order to optimize sensitivity, the substrate concentration was decreased as compared to the HRP coupled assay in order to get a higher fraction of radioactive product. In the human SSAO assay, benzylamine concentration was 40 uM (0.2 uCi/mL). Data was analysed as above.
For `Fc1cncc(-c2cc3ccncc3n2-c2ccc(Cl)cc2)c1` [Example 148, 3-[1-(4-Chlorophenyl)-1H-pyrrolo[2,3-c]pyridin-2-yl]-5-fluoropyridine], the half-inhibitory concentration (IC50) was under 50 nM.

For the molecule `Cc1cnccc1-c1cc2ccncc2n1-c1ccc(Cl)cc1` [Example 154, 4-[1-(4-Chlorophenyl)-1H-pyrrolo[2,3-c]pyridin-2-yl]-3-methylpyridine], the IC50 is under 50 nM.

Turning to `Cn1nccc1-c1cc2ccncc2n1-c1ccc(Cl)cc1` [Example 134, 5-[1-(4-Chlorophenyl)-1H-pyrrolo[2,3-c]pyridin-2-yl]-1-methyl-1H-pyrazole], the IC50 was under 50 nM.

For `Cc1ccc(-n2c(-c3cnc(N4C[C@@H](C)O[C@@H](C)C4)nc3)nc3ccncc32)cn1` [Example 118, (2R,6S)-2,6-Dimethyl-4-{5-[3-(6-methylpyridin-3-yl)-3H-imidazo[4,5-c]pyridin-2-yl]pyrimidin-2-yl}morpholine], the half-inhibitory concentration (IC50) was under 50 nM.

`O=c1cc(-c2cc3ccncc3n2-c2ccccc2)ccn1C1CC1` [Example 155, 1-Cyclopropyl-4-{1-phenyl-1H-pyrrolo[2,3-c]pyridin-2-yl}-1,2-dihydropyridin-2-one]: the concentration for half-maximal inhibition (IC50) was 200 to 1200 nM.

As to `Cc1ccc(-n2c(-c3ccc(N4C[C@@H](C)O[C@@H](C)C4)nc3)nc3ccncc32)nc1` [Example 104, (2R,6S)-2,6-Dimethyl-4-{5-[3-(5-methylpyridin-2-yl)-3H-imidazo[4,5-c]pyridin-2-yl]pyridin-2-yl}morpholine], the IC50 is under 50 nM.

With `Cc1cc(N2CCOCC2)ncc1-c1cc2ccncc2n1-c1ccc(Cl)cc1` [Example 129, 4-{5-[1-(4-Chlorophenyl)-1H-pyrrolo[2,3-c]pyridin-2-yl]-4-methylpyridin-2-yl}morpholine; bis(trifluoroacetic acid)], the half-inhibitory concentration (IC50) is under 50 nM.

For `CC(=O)N1CCCN(c2ccc(-c3nc4ccncc4n3-c3ccc(F)cc3)cn2)CC1` [Example 87, 1-(4-{5-[3-(4-Fluorophenyl)-3H-imidazo[4,5-c]pyridin-2-yl]pyridin-2-yl}-1,4-diazepan-1-yl)ethan-1-one; bis(trifluoroacetic acid)], the half-maximal inhibitory concentration (IC50) was under 50 nM.

Take `CS(=O)(=O)NC1CCN(c2ccc(-c3nc4ccncc4n3-c3ccc(Cl)cc3)cn2)CC1` [Example 88, N-(1-{5-[3-(4-Chlorophenyl)-3H-imidazo[4,5-c]pyridin-2-yl]pyridin-2-yl}piperidin-4-yl)methanesulfonamide]: the IC50 is under 50 nM.

Take `Cc1cc(N(C)C)ncc1-c1nc2ccncc2n1-c1ccc(F)cc1` [Example 111, 5-[3-(4-Fluorophenyl)-3H-imidazo[4,5-c]pyridin-2-yl]-N,N,4-trimethylpyridin-2-amine]: the IC50 lay within 200 to 1200 nM.

For the molecule `COCCCNc1ncc(-c2nc3ccncc3n2-c2ccc(C)cc2)cn1` [Example 37, N-(3-Methoxypropyl)-5-[3-(4-methylphenyl)-3H-imidazo[4,5-c]pyridin-2-yl]pyrimidin-2-amine], the concentration for half-maximal inhibition (IC50) was under 50 nM.

`Clc1ccc(-n2c(-c3ccc(Cn4ccnc4)cc3)nc3ccncc32)cc1` [Example 48, 1-({4-[3-(4-Chlorophenyl)-3H-imidazo[4,5-c]pyridin-2-yl]phenyl}methyl)-1H-imidazole]: the concentration for half-maximal inhibition (IC50) was under 50 nM.

Consider `Fc1ccc(-n2c(-c3ccc(OC4CCOC4)nc3)nc3ccncc32)cc1` (stereo not drawn) [Example 112, 5-[3-(4-Fluorophenyl)-3H-imidazo[4,5-c]pyridin-2-yl]-2-(oxolan-3-yloxy)pyridine], for which the IC50 is under 50 nM.

`Fc1ccccc1-n1c(-c2ccc(N3CCOCC3)nc2)nc2ccncc21` [Example 68, 4-{5-[3-(2-Fluorophenyl)-3H-imidazo[4,5-c]pyridin-2-yl]pyridin-2-yl}morpholine]: the IC50 was under 50 nM.

Regarding `Clc1ccc(-n2c(-c3cnc(N4CCOCC4)nc3)nc3ccncc32)cc1` [Example 51, 4-{5-[3-(4-Chlorophenyl)-3H-imidazo[4,5-c]pyridin-2-yl]pyrimidin-2-yl}morpholine], the IC50 is under 50 nM.

`Clc1ccc(-n2c(-c3ccc(N4CCOCC4)nn3)nc3ccncc32)cc1` [Example 4, 4-{6-[3-(4-Chlorophenyl)-3H-imidazo[4,5-c]pyridin-2-yl]pyridazin-3-yl}morpholine]: the IC50 is under 50 nM.

On to `CN(C)c1ncc(-c2cc3ccncc3n2-c2ccc(Cl)cc2)cn1` [Example 137, 5-[1-(4-Chlorophenyl)-1H-pyrrolo[2,3-c]pyridin-2-yl]-N,N-dimethylpyrimidin-2-amine; bis(trifluoroacetic acid)], for which the IC50 is under 50 nM.

With `Nc1cc(-c2cc3ccncc3n2-c2ccc(Cl)cc2)ccn1` [Example 147, 4-[1-(4-Chlorophenyl)-1H-pyrrolo[2,3-c]pyridin-2-yl]pyridin-2-amine], the half-inhibitory concentration (IC50) was under 50 nM.

On to `O=c1cc(-c2nc3ccncc3n2-c2ccc(F)cc2)ccn1C1CC1` [Example 115, 1-Cyclopropyl-4-[3-(4-fluorophenyl)-3H-imidazo[4,5-c]pyridin-2-yl]-1,2-dihydropyridin-2-one], for which the IC50 is under 50 nM.

As for `Cc1ccc(-n2c(-c3ccc(N4CCOCC4)nc3)nc3ccncc32)c(F)c1` [Example 67, 4-{5-[3-(2-Fluoro-4-methylphenyl)-3H-imidazo[4,5-c]pyridin-2-yl]pyridin-2-yl}morpholine], the concentration for half-maximal inhibition (IC50) was under 50 nM.

`Cc1nc(N2CCOCC2)ncc1-c1nc2ccncc2n1-c1ccc(Cl)cc1F` [Example 27, 4-{5-[3-(4-Chloro-2-fluorophenyl)-3H-imidazo[4,5-c]pyridin-2-yl]-4-methylpyrimidin-2-yl}morpholine]: the IC50 is under 50 nM.

As for `NC1CCN(c2ccc(-c3nc4ccncc4n3-c3ccc(Cl)cc3)cn2)CC1` [Example 8, 1-{5-[3-(4-Chlorophenyl)-3H-imidazo[4,5-c]pyridin-2-yl]pyridin-2-yl}piperidin-4-amine], the IC50 was under 50 nM.

In the case of `Cc1nc(C)c(-c2cc3ccncc3n2-c2ccc(Cl)cc2)[nH]1` [Example 126, 5-[1-(4-Chlorophenyl)-1H-pyrrolo[2,3-c]pyridin-2-yl]-2,4-dimethyl-1H-imidazole], the IC50 is under 50 nM.

Consider `NC(=O)N1CCN(c2ccc(-c3nc4ccncc4n3-c3ccc(Cl)cc3)cn2)CC1` [Example 90, 4-{5-[3-(4-Chlorophenyl)-3H-imidazo[4,5-c]pyridin-2-yl]pyridin-2-yl}piperazine-1-carboxamide dihydrochloride], for which the half-inhibitory concentration (IC50) was under 50 nM.

As to `Fc1ccc(-n2c(-c3cnc(N4CCCOCC4)nc3)nc3ccncc32)cc1` [Example 25, 4-{5-[3-(4-Fluorophenyl)-3H-imidazo[4,5-c]pyridin-2-yl]pyrimidin-2-yl}-1,4-oxazepane], the IC50 was under 50 nM.

`Cn1ccc(-c2nc3ccncc3n2-c2ccc(Cl)cc2)cc1=O` [Example 32, 4-[3-(4-Chlorophenyl)-3H-imidazo[4,5-c]pyridin-2-yl]-1-methyl-1,2-dihydropyridin-2-one]: the half-maximal inhibitory concentration (IC50) is under 50 nM.

A further series has as its target human ether a go-go related gene (hERG) K+ channel (Homo sapiens (Human), UniProt Q12809). Kind of series: hERG assay, IonWorks patch clamp electrophysiology. Type of series: cell-based. The note with it: Chinese Hamster Lung cell line stably expressing hERG; max assay concentration 11 uM. On the procedure:
Compounds of the invention were tested for inhibition of the human ether a go-go related gene (hERG) K^+ channel using IonWorks patch clamp electrophysiology. 8 Point concentration-response curves were generated on two occasions using 3-fold serial dilutions from the maximum assay concentration (11 uM). Electrophysiological recordings were made from a Chinese Hamster Lung cell line stably expressing the full length hERG channel. Single cell ion currents were measured in the perforated patch clamp configuration (100 ug/mL amphoterocin) at room temperature using an IonWorks Quattro instrument. The internal solution contained 140 mM KCl, 1 mM MgCl2, 1 mM EGTA and 20 mM HEPES and was buffered to pH 7.3. The external solution contained 138 mM NaCl, 2.7 mM KCl, 0.9 mM CaCl2, 0.5 mM MgCl2, 8 mM Na2HPO4 and 1.5 mM KH2PO4, and was buffered to pH 7.3. […] This sequence was repeated 5 times at a frequency of 0.25 Hz. Currents were measured from the tail step at the 5th pulse, and referenced to the holding current. Compounds were incubated for 6-7 min prior to a second measurement of the hERG signal using an identical pulse train. […] A control compound (quinidine) was used (see Table 20 below).
On the technique in general: The hERG channel carries a current that helps repolarise heart muscle cells.
Molecule `NC(=O)NC1CCN(c2ccc(-c3nc4ccncc4n3-c3ccc(Cl)cc3)cn2)CC1` [Example 91, (1-{5-[3-(4-Chlorophenyl)-3H-imidazo[4,5-c]pyridin-2-yl]pyridin-2-yl}piperidin-4-yl)urea; bis(trifluoroacetic acid)] returned an IC50 of over 10000 nM.

The values above are taken from patent US9951068B2 (Proximagen Limited, priority 2013, dated 2018).
